Measured values: ChEMBL document CHEMBL1139986, “Synthesis and biodistribution of 8-iodo-11-(4-methylpiperazino)-5H-dibenzo[b,e][1,4]-diazepine: Iozapine” (Bioorg Med Chem Lett, 2007)

Tests used:
Thyroid gland [1] = experiment: Biodistribution in BALB/c mouse thyroid at 7 to 8 KBq, iv after 5 mins; type: ADME, organism-based; settings: in vivo
Lung [2] = experiment: Biodistribution in BALB/c mouse lung at 7 to 8 KBq, iv after 15 mins; type: ADME, organism-based; settings: in vivo, 0.25 h
Thyroid gland [3] = experiment: Biodistribution in BALB/c mouse thyroid at 7 to 8 KBq, iv after 60 mins; type: ADME, organism-based; settings: in vivo, 1 h
Thyroid gland [4] = experiment: Biodistribution in BALB/c mouse thyroid at 7 to 8 KBq, iv after 120 mins; type: ADME, organism-based; settings: in vivo, 2 h
Heart [5] = experiment: Biodistribution in BALB/c mouse heart at 7 to 8 KBq, iv after 60 mins; type: ADME, organism-based; settings: in vivo, 1 h
Cortex = experiment: Biodistribution in BALB/c mouse cortex at 7 to 8 KBq, iv after 120 mins; type: ADME, organism-based; settings: in vivo, 2 h
Heart [6] = experiment: Biodistribution in BALB/c mouse heart at 7 to 8 KBq, iv after 5 mins; type: ADME, organism-based; settings: in vivo
Pancreas [7] = experiment: Biodistribution in BALB/c mouse pancreas at 7 to 8 KBq, iv after 5 mins; type: ADME, organism-based; settings: in vivo
Mus musculus [8] = experiment: Biodistribution in BALB/c mouse upper body at 7 to 8 KBq, iv after 60 mins; type: ADME, organism-based; settings: in vivo, 1 h
Heart [9] = experiment: Biodistribution in BALB/c mouse heart at 7 to 8 KBq, iv after 15 mins; type: ADME, organism-based; settings: in vivo, 0.25 h
Hippocampus = experiment: Biodistribution in BALB/c mouse hippocampus at 7 to 8 KBq, iv after 5 mins; type: ADME, organism-based; settings: in vivo
Brain = experiment: Biodistribution in BALB/c mouse brain at 7 to 8 KBq, iv after 60 mins; type: ADME, organism-based; settings: in vivo, 1 h
Kidney [10] = experiment: Biodistribution in BALB/c mouse kidney at 7 to 8 KBq, iv after 60 mins; type: ADME, organism-based; settings: in vivo, 1 h
Medulla = experiment: Biodistribution in BALB/c mouse medulla at 7 to 8 KBq, iv after 5 mins; type: ADME, organism-based, Medulla of organ; settings: in vivo
Liver [11] = experiment: Biodistribution in BALB/c mouse liver at 7 to 8 KBq, iv after 60 mins; type: ADME, organism-based; settings: in vivo, 1 h
Mus musculus [12] = experiment: Biodistribution in BALB/c mouse upper body at 7 to 8 KBq, iv after 5 mins; type: ADME, organism-based; settings: in vivo
Mus musculus [13] = experiment: Biodistribution in BALB/c mouse lower body at 7 to 8 KBq, iv after 5 mins; type: ADME, organism-based; settings: in vivo
Blood [14] = experiment: Biodistribution in BALB/c mouse blood at 7 to 8 KBq, iv after 120 mins; type: ADME, organism-based; settings: in vivo, 2 h
Lung [15] = experiment: Biodistribution in BALB/c mouse lung at 7 to 8 KBq, iv after 120 mins; type: ADME, organism-based; settings: in vivo, 2 h
Mus musculus [16] = experiment: Biodistribution in BALB/c mouse lower body at 7 to 8 KBq, iv after 60 mins; type: ADME, organism-based; settings: in vivo, 1 h
Pancreas [17] = experiment: Biodistribution in BALB/c mouse pancreas at 7 to 8 KBq, iv after 60 mins; type: ADME, organism-based; settings: in vivo, 1 h
Liver [18] = experiment: Biodistribution in BALB/c mouse liver at 7 to 8 KBq, iv after 15 mins; type: ADME, organism-based; settings: in vivo, 0.25 h
Intestine = experiment: Biodistribution in BALB/c mouse intestine at 7 to 8 KBq, iv after 5 mins; type: ADME, organism-based; settings: in vivo
Spleen [19] = experiment: Biodistribution in BALB/c mouse spleen at 7 to 8 KBq, iv after 120 mins; type: ADME, organism-based; settings: in vivo, 2 h
Spleen [20] = experiment: Biodistribution in BALB/c mouse spleen at 7 to 8 KBq, iv after 60 mins; type: ADME, organism-based; settings: in vivo, 1 h
Pancreas [21] = experiment: Biodistribution in BALB/c mouse pancreas at 7 to 8 KBq, iv after 120 mins; type: ADME, organism-based; settings: in vivo, 2 h
Kidney [22] = experiment: Biodistribution in BALB/c mouse kidney at 7 to 8 KBq, iv after 15 mins; type: ADME, organism-based; settings: in vivo, 0.25 h
Kidney [23] = experiment: Biodistribution in BALB/c mouse kidney at 7 to 8 KBq, iv after 5 mins; type: ADME, organism-based; settings: in vivo
Striatum [24] = experiment: Biodistribution in BALB/c mouse striatum at 7 to 8 KBq, iv after 60 mins; type: ADME, organism-based; settings: in vivo, 1 h
Spleen [25] = experiment: Biodistribution in BALB/c mouse spleen at 7 to 8 KBq, iv after 5 mins; type: ADME, organism-based; settings: in vivo
Lung [26] = experiment: Biodistribution in BALB/c mouse lung at 7 to 8 KBq, iv after 60 mins; type: ADME, organism-based; settings: in vivo, 1 h
Striatum [27] = experiment: Biodistribution in BALB/c mouse striatum at 7 to 8 KBq, iv after 15 mins; type: ADME, organism-based; settings: in vivo, 0.25 h
Blood [28] = experiment: Biodistribution in BALB/c mouse blood at 7 to 8 KBq, iv after 5 mins; type: ADME, organism-based; settings: in vivo
Mus musculus [29] = experiment: Biodistribution in BALB/c mouse upper body at 7 to 8 KBq, iv after 120 mins; type: ADME, organism-based; settings: in vivo, 2 h
Striatum [30] = experiment: Biodistribution in BALB/c mouse striatum at 7 to 8 KBq, iv after 5 mins; type: ADME, organism-based; settings: in vivo
Thalamus = experiment: Biodistribution in BALB/c mouse thalamus at 7 to 8 KBq, iv after 120 mins; type: ADME, organism-based; settings: in vivo, 2 h
Spleen [31] = experiment: Biodistribution in BALB/c mouse spleen at 7 to 8 KBq, iv after 15 mins; type: ADME, organism-based; settings: in vivo, 0.25 h
Striatum [32] = experiment: Biodistribution in BALB/c mouse striatum at 7 to 8 KBq, iv after 120 mins; type: ADME, organism-based; settings: in vivo, 2 h

Structure (SMILES): CN1CCN(C2=Nc3cc([125I])ccc3Nc3ccccc32)CC1 [[125I]I-OZAPINE]
- Drug uptake (Thyroid gland [1]): 0 %ID
- Drug uptake (Lung [2]): 1.6 %ID
- Drug uptake (Thyroid gland [3]): 0.68 %ID
- Drug uptake (Thyroid gland [4]): 1.3 %ID
- Drug uptake (Heart [5]): 0.13 %ID
- Drug uptake (Cortex): 0.22 %ID
- Drug uptake (Heart [6]): 0.6 %ID
- Drug uptake (Pancreas [7]): 1.41 %ID
- Drug uptake (Mus musculus [8]): 11.54 %ID
- Drug uptake (Heart [9]): 0.28 %ID
- Drug uptake (Hippocampus): 7.07 %ID
- Drug uptake (Brain): 0.8 %ID
- Drug uptake (Kidney [10]): 2.15 %ID
- Drug uptake (Medulla): 6.78 %ID
- Drug uptake (Liver [11]): 12.03 %ID
- Drug uptake (Mus musculus [12]): 23.3 %ID
- Drug uptake (Mus musculus [13]): 18.94 %ID
- Drug uptake (Blood [14]): 1.77 %ID
- Drug uptake (Lung [15]): 0.17 %ID
- Drug uptake (Mus musculus [16]): 10.24 %ID
- Drug uptake (Pancreas [17]): 0.34 %ID
- Drug uptake (Liver [18]): 10.38 %ID
- Drug uptake (Intestine): 9.16 %ID
- Drug uptake (Spleen [19]): 0.04 %ID
- Drug uptake (Spleen [20]): 0.13 %ID
- Drug uptake (Pancreas [21]): 0.16 %ID
- Drug uptake (Kidney [22]): 4.41 %ID
- Drug uptake (Kidney [23]): 5.42 %ID
- Drug uptake (Striatum [24]): 2.11 %ID
- Drug uptake (Spleen [25]): 0.37 %ID
- Drug uptake (Lung [26]): 0.5 %ID
- Drug uptake (Striatum [27]): 6.76 %ID
- Drug uptake (Blood [28]): 4.17 %ID
- Drug uptake (Mus musculus [29]): 5.72 %ID
- Drug uptake (Striatum [30]): 7.28 %ID
- Drug uptake (Thalamus): 0.2 %ID
- Drug uptake (Spleen [31]): 0.31 %ID
- Drug uptake (Striatum [32]): 0.2 %ID
